Positions of bridges follow the written chain, without caps; N, C: chain ends. Non-standard residues stand in square brackets, D forms with d. No end group written: not given here.
Tests used:
Assay type in all cases: cell-based
[1] = tested on: Listeria innocua ATCC33090; assay: Aging of ground beef inoculated with Listeria: viable cell count; settings: first day of aging up to day 7
Excerpt: The broths obtained by cultivating Lactococcus lactis NCIMB702054 (a strain producing NisinZ) and Weissella sp.AJ110263 (FERM BP-10474) in MRS culture media were adjusted to pH 5.5 with sodium hydroxide. Subsequently, the bacteria were removed from the pH adjusted culture liquid by centrifucation to obtain a supernatant. The broths containing lactic acid bacteria and the supernatants were used in the experiment described below.
5 g of ground meat of Black hair Japanese beef were individually put into six aseptic Falcon tubes (Becton Dickinson Co.50-ml volume) and 5 ml of saline were added to the meat(Sample No.1), 5 ml of 18% salt solution to Sample No.2, 5 ml of the supernatant of Lactococcus lactis NCIMB702054 to Sample No.3, 5 ml of the broth of Lactococcus lactis NCIMB702054 to Sample No.4, 5 ml of the supernatant of Weissella sp. AJ110263 to Sample No.5, 5 ml of the broth of Weissella sp. AJ110263 to Sample No.6. Further, Listeria innocua ATCC33090, statically cultivated in TSBYE medium at 37° C. for 24 hours, was added to the samples in the amount of 10^8 cfu/ml and the samples were aged at ambient temperature. The samples aged for one day and seven days were collected to count the viable cells of Listeria innocua ATCC33090 in the Listeria selection medium (Oxoid Inc.).

[2] = tested on: Bacillus subtilis IAM1381; assay: Bacteriocin as substitute for salt in soy sauce manufacturing process: viable cell count of contaminating bacterium; settings: soy sauce koji test, first day of fermentation up to day 7
Experimental: Soybean (10 g) and pure water (10 ml) were individually added into six Erlenmeyer flasks (200-ml volume) and sterilized in an autoclave at 120° C. for 30 minutes. After cooling, 0.04 g of koji mold(Purple 1, NO.1 bacterium for soy sauce) was added, and cultivated statically at 30° C. for 2 days. 40 ml of sterile pure water were added to cultivated sample (Sample No.1), 40 ml of salt solution which adjusted the salt content of the sample to 18% to Sample No.2, 40 ml of a culture supernatant of Lactococcus lactis NCIMB702054 (the bacterium producing nisin Z) to Sample No.3 and 40 ml of a culture supernatant of Weissella sp. AJ110263 (FERM BP-10474) to Sample No.4, 40 ml of a culture supernatant of Pediococcus pentosaseceus JCM5885 to Sample 5 and 40 ml of a culture supernatant of Lactobacillus salivarius JCM1231 to Sample 6. The resulting mixtures were then adjusted to pH 6.5 to 7.0, using 6N hydrochloric acid and 6N NaOH passed through a filter.
200 μl of Bacillus subtilis IAM1381 cultivated in the TSBYE medium by a shaker at 30° C. for 20 hours was additionally inoculated, mixed thoroughly and cultivated at 30° C. On days 1, 2 and 7 of the cultivation, the broth was collected to count the viable cells of Bacillus subtilis IAM1381 on the GAM agar medium (GAM bouillon “NISSUI”, Nissui Pharmaceutical Co., Ltd.). […]

[3] = tested on: Lactobacillus sakei strain JCM1157; assay: Inhibitory zone of lactic acid bacteria on MRS agar plate containing protease (Umamizyme G), overlaid with indicator strain; settings: Protease 0 U/ml, Nisin A spotted as 10 μl of 1000 IU/ml
Experimental: The collected lactic acid bacteria are cultivated in the heretofore described manner. Then, the lactic acid bacteria are inoculated and cultivated for 24 hours on a plate of MRS agar medium to which filtrated Umamizyme G (a protease derived from Aspergillus oryzaeproteases; Amano Enzyme Co) is added. Subsequently, the Lactobacilli AOAC medium (Table 3) into which an indicator strain is initially mixed is overlaid on the plate and cultivated for 24 hours, to form an inhibitory zone of the indicator strain.
Weissella sp. AJ110263 (FERM BP-10474) separated from fermented milk Matsoon and Pediococcus pentosaceus JCM5885, Pediococcus pentosaceus JCM5890, Lactobacillus plantarum JCM1149 and Lactobacillus salivarius obtained from the type cultures were initially cultivated followed by cultivation in the MRS medium (Table 1). […]
Lactococcus lactis NCDO497 (a nisinA producer) and Lactococcus lactis NCIMB702054 (a nisin Z producer) were cultivated in the MRS medium at 30° C. In the same manner as in Example 1, the antimicrobial activity was evaluated, using Lactobacillus sakei strain JCM1157 as an indicator strain.
Additionally, the antimicrobial activity was evaluated, by spotting 10 μl of a 1000 IU/ml solution of Nisin A, ICN Biomedical Inc. instead of using the nisin producer, on the plate of the MRS agar medium.

Compound	contaminating Listeria innocua ATCC33090 count [1]	contamination by Bacillus subtilis IAM1381 (in words) [2]	Diameter(mm) of Inhibitory Zone of Strain not producing PRB [3] [mm]
[Cl-].[Na+] [salt, sodium chloride]	≥ 10^5 cfu/ml	no contamination occurred	–
Nisin A (I[dehydrobutyrine]SI[dehydroalanine]LCTPGCKTGALMGCNMKTATCHCSIHV[dehydroalanine]K; bridge 23-26, 13-19, 8-11, 25-28, 3-7; not fully specified (residues 3, 8, 13, 23, 25, bridges); UniProt P13068 24-57, looked up) [Nisin A, ICN Biomedical Inc., bacteriocin spotted instead of a nisin producer]	–	–	30

Reference: patent publication US20060270019A1, “Method for producing lactic acid bacterium culture containing bacteriocin and a method for preserving food products for by using it” (Ajinomoto Co., Inc., priority 2003, published 2006)
